Test results reported in patent publication US11014934B2, “Antiseptic drug” (AO “TATKHIMFARMPREPARATY”, priority 2017, dated 2021).
Like-named read-outs stand apart in the source and are kept apart here.

Columns and labels:
Experiment in all cases: MIC, serial dilutions in Müller-Hinton broth
Format in all cases: cell-based
E. faecalis 26 = system: E. faecalis 26
Description: (§1) A comparative assessment of the spectrum of antibacterial action was carried out on archival and clinical strains of gram-positive and gram-negative microorganisms in accordance with the [Opredeleniye chuvstvitel'nosti mikroorganizmov k antibakterial'nym preparatam (Metodicheskiye ukazaniya MUK 4.2.1890-04). Utverzhdeny i vvedeny v deystviye Glavnym gosudarstvennym sanitarnym vrachom Rossiyskoy Federatsii G. G. Onishchenko 04.03.2004 g. Determination of the sensitivity of microorganisms to antibacterial drugs (Guidelines MUK 4.2.1890-04). Approved and put into effect by the Chief State Sanitary Doctor of the Russian Federation G. G. Onishchenko on 4 Mar. 2004].
(§2) The value of the minimum inhibitory concentration (MIC) was determined by the method of serial dilutions on Müller-Hinton broth using 96-well sterile plates. Two-fold dilutions of the test substances in a nutrient medium were prepared. The final concentrations were 1-128 ug/ml. The growth of cultures was assessed visually, comparing the growth of microorganisms in the presence of test compounds with the growth of culture without them. […] The first lowest concentration of the studied substance (from a series of consecutive dilutions), where bacterial growth is not visually determined, is considered to be the minimum inhibitory concentration (MIC). MIC was determined by the method of serial dilutions in broth with increment=2, so the differences of neighboring dilutions are not considered to be significant. In each experience there is a positive (broth with growing culture) and a negative (broth without growing culture) control.
(§3) To determine the MIC, 10 μl of culture medium was taken from those wells in which growth was not observed, and inoculation was performed on a dense Müller-Hinton broth. For the preparation of the inoculum, a pure, daily culture of gram-positive and gram-negative microorganisms grown on a dense nutrient medium was used. Nutrient medium is Müller-Hinton broth, which was prepared from dry media (Müller-Hinton broth, Acumedia, Baltimore), cultivation was carried out on agarized Müller-Hinton broth, including an additional 2% agar. The media were autoclaved at 121° C. for 15 minutes. In a sterile isotonic solution of sodium chloride, a suspension of microorganisms was prepared, adjusting the inoculum density to 0.5 according to the McFarland standard (1.5·10^8 CFU/ml). Then, the resulting inoculum was diluted to a concentration of 10^7 CFU/ml with Müller-Hinton broth. The inoculum was used within 15 minutes after preparation; the purity of the bacterial strains was monitored before each experiment.
(§4) 100 μl of Müller-Hinton broth was added to the wells of each plate; The tested substance was introduced into the first well at a concentration of 128 μg/ml in a volume of 100 μl and its concentration was adjusted to 0.5 μg/ml by consecutive two-fold dilution. Then, the prepared inoculum (100 μI) was added to each well, thereby diluting twice the concentration of the studied compounds. […] In addition, the purity of nutrient media and solvents was monitored. The plates were incubated in a thermostat at 37° C. for 24 hours. The growth of cultures was assessed visually, comparing the growth of microorganisms in the presence of test compounds with the growth of culture without them.
(§5) For the MIC was taken the minimum concentration of the studied compounds, providing complete suppression of the visible growth of the studied strains of microorganisms. The maximum value obtained in three independent experiments was taken as the MIC of the compound.

E. faecium 3030 = system: E. faecium 3030
Description: as §1, §2, §3, §4, §5

M. luteus = system: M. luteus
Description: as §1, §2, §3, §4, §5

S. aureus 1053a = system: S. aureus 1053a
Description: as §1, §2, §3, §4, §5

Ps. aeruginosa 1959 = system: Ps. aeruginosa 1959
Description: as §1, §2, §3, §4, §5

Moraxella sp. 764 = system: Moraxella sp. 764
Description: as §1, §2, §3, §4, §5

E. faecalis 3047 = system: E. faecalis 3047
Description: as §1, §2, §3, §4, §5

Klebsiella spp. 11 = system: Klebsiella spp. 11
Description: as §1, §2, §3, §4, §5

S. aureus ATCC 29213 = system: S. aureus ATCC 29213
Description: as §1, §2, §3, §4, §5

S. aureus 19 = system: S. aureus 19
Description: as §1, §2, §3, §4, §5

E. faecium 32 = system: E. faecium 32
Description: as §1, §2, §3, §4, §5

S. aureus 21 = system: S. aureus 21
Description: as §1, §2, §3, §4, §5

S. aureus 18 = system: S. aureus 18
Description: as §1, §2, §3, §4, §5

E. faecium 28 = system: E. faecium 28
Description: as §1, §2, §3, §4, §5

S. aureus 1130 MRSA = system: S. aureus 1130 MRSA
Description: as §1, §2, §3, §4, §5

S. intermedius 1143 MRSA = system: S. intermedius 1143 MRSA
Description: as §1, §2, §3, §4, §5

Proteus spp. 17 = system: Proteus spp. 17
Description: as §1, §2, §3, §4, §5

Acinetobacter spp. 4 = system: Acinetobacter spp. 4
Description: as §1, §2, §3, §4, §5

E. faecalis 23 = system: E. faecalis 23
Description: as §1, §2, §3, §4, §5

Moraxella sp. 765 = system: Moraxella sp. 765
Description: as §1, §2, §3, §4, §5

Kl. pneumoniae 1812 PR = system: Kl. pneumoniae 1812 PR
Description: as §1, §2, §3, §4, §5

S. aureus 983 MRSA = system: S. aureus 983 MRSA
Description: as §1, §2, §3, §4, §5

alkyldimethyl(phenylmethyl) ammonium chloride [Benzalconium chloride]
MIC (E. faecalis 26; E. faecalis 26, inoculum 10^7 CFU/ml): 0.5 µg/mL | MIC (E. faecium 3030; E. faecium 3030, inoculum 10^7 CFU/ml): 0.5 µg/mL | MIC (M. luteus; M. luteus, inoculum 10^7 CFU/ml): 1 µg/mL | MIC (S. aureus 1053a; S. aureus 1053a, inoculum 10^7 CFU/ml): 1 µg/mL | MIC (Ps. aeruginosa 1959; Ps. aeruginosa 1959, inoculum 10^7 CFU/ml): >64 µg/mL | MIC (Moraxella sp. 764; Moraxella sp. 764, inoculum 10^7 CFU/ml): 4 µg/mL | MIC (E. faecalis 3047; E. faecalis 3047, inoculum 10^7 CFU/ml): 2 µg/mL | MIC (Klebsiella spp. 11; Klebsiella spp. 11, inoculum 10^7 CFU/ml): 2 µg/mL | MIC (S. aureus ATCC 29213; S. aureus ATCC 29213, inoculum 10^7 CFU/ml): 2 µg/mL | MIC (S. aureus 19; S. aureus 19, inoculum 10^7 CFU/ml): <0.5 µg/mL | MIC (E. faecium 32; E. faecium 32, inoculum 10^7 CFU/ml): <0.5 µg/mL | MIC (S. aureus 21; S. aureus 21, inoculum 10^7 CFU/ml): <0.5 µg/mL | MIC (S. aureus 18; S. aureus 18, inoculum 10^7 CFU/ml): <0.5 µg/mL | MIC (E. faecium 28; E. faecium 28, inoculum 10^7 CFU/ml): <0.5 µg/mL | MIC (S. aureus 1130 MRSA; S. aureus 1130 MRSA, inoculum 10^7 CFU/ml): 2 µg/mL | MIC (S. intermedius 1143 MRSA; S. intermedius 1143 MRSA, inoculum 10^7 CFU/ml): 4 µg/mL | MIC (Proteus spp. 17; Proteus spp. 17, inoculum 10^7 CFU/ml): 16 µg/mL | MIC (Acinetobacter spp. 4; Acinetobacter spp. 4, inoculum 10^7 CFU/ml): 4 µg/mL | MIC (E. faecalis 23; E. faecalis 23, inoculum 10^7 CFU/ml): <0.5 µg/mL | MIC (Moraxella sp. 765; Moraxella sp. 765, inoculum 10^7 CFU/ml): 32 µg/mL | MIC (Kl. pneumoniae 1812 PR; Kl. pneumoniae 1812 PR, inoculum 10^7 CFU/ml): 64 µg/mL | MIC (S. aureus 983 MRSA; S. aureus 983 MRSA, inoculum 10^7 CFU/ml): 4 µg/mL

CCCCCCCCCCCC[N+](C)(C)Cc1cnc(C[N+](C)(C)CCCCCCCCCCCC)c2c1COC(CC)O2 (stereo not drawn) [Compound I, 5,8-(Bis(methylene (N, N-dimethyl-N-dodecylammonium))-2-ethyl-4H-[1,3]dioxino [4,5-c]pyridiniumdichloride]
MIC (E. faecalis 26; Enterococcus faecalis, E. faecalis 26, inoculum 10^7 CFU/ml, read-out: MIC): 1 µg/mL | MIC (E. faecium 3030; Enterococcus faecium, E. faecium 3030, inoculum 10^7 CFU/ml, read-out: MIC): 1 µg/mL | MIC (M. luteus; Micrococcus luteus, M. luteus, inoculum 10^7 CFU/ml, read-out: MIC): 2 µg/mL | MIC (S. aureus 1053a; Staphylococcus aureus, S. aureus 1053a, inoculum 10^7 CFU/ml, read-out: MIC): 2 µg/mL | MIC (Ps. aeruginosa 1959; Pseudomonas aeruginosa, Ps. aeruginosa 1959, inoculum 10^7 CFU/ml, read-out: MIC): 32 µg/mL | MIC (Moraxella sp. 764; Moraxella sp. 764, inoculum 10^7 CFU/ml, read-out: MIC): 8 µg/mL | MIC (E. faecalis 3047; Enterococcus faecalis, E. faecalis 3047, inoculum 10^7 CFU/ml, read-out: MIC): 4 µg/mL | MIC (Klebsiella spp. 11; Klebsiella spp. 11, inoculum 10^7 CFU/ml, read-out: MIC): 16 µg/mL | MIC (S. aureus ATCC 29213; Staphylococcus aureus, ATCC29213, S. aureus ATCC 29213, inoculum 10^7 CFU/ml, read-out: MIC): 4 µg/mL | MIC (S. aureus 19; Staphylococcus aureus, S. aureus 19, inoculum 10^7 CFU/ml, read-out: MIC): 2 µg/mL | MIC (E. faecium 32; Enterococcus faecium, E. faecium 32, inoculum 10^7 CFU/ml, read-out: MIC): 0.03 µg/mL | MIC (S. aureus 21; Staphylococcus aureus, S. aureus 21, inoculum 10^7 CFU/ml, read-out: MIC): 1 µg/mL | MIC (S. aureus 18; Staphylococcus aureus, S. aureus 18, inoculum 10^7 CFU/ml, read-out: MIC): 4 µg/mL | MIC (E. faecium 28; Enterococcus faecium, E. faecium 28, inoculum 10^7 CFU/ml, read-out: MIC): 0.03 µg/mL | MIC (S. aureus 1130 MRSA; Staphylococcus aureus, S. aureus 1130 MRSA, inoculum 10^7 CFU/ml, read-out: MIC): 2 µg/mL | MIC (S. intermedius 1143 MRSA; S. intermedius 1143 MRSA, inoculum 10^7 CFU/ml, read-out: MIC): 4 µg/mL | MIC (Proteus spp. 17; Proteus spp. 17, inoculum 10^7 CFU/ml, read-out: MIC): 64 µg/mL | MIC (Acinetobacter spp. 4; Acinetobacter spp. 4, inoculum 10^7 CFU/ml, read-out: MIC): 8 µg/mL | MIC (E. faecalis 23; Enterococcus faecalis, E. faecalis 23, inoculum 10^7 CFU/ml, read-out: MIC): 0.03 µg/mL | MIC (Moraxella sp. 765; Moraxella sp. 765, inoculum 10^7 CFU/ml, read-out: MIC): 4 µg/mL | MIC (Kl. pneumoniae 1812 PR; Klebsiella pneumoniae, Kl. pneumoniae 1812 PR, inoculum 10^7 CFU/ml, read-out: MIC): 64 µg/mL | MIC (S. aureus 983 MRSA; Staphylococcus aureus, S. aureus 983 MRSA, inoculum 10^7 CFU/ml, read-out: MIC): 8 µg/mL

CCCCCCCCCCCCCC(=O)NCCC[N+](C)(C)Cc1ccccc1.O.[Cl-] [Miramistin, benzyldimethyl [3-(myristoylamino)propyl]-ammonium chloride monohydrate]
MIC (E. faecalis 26; Enterococcus faecalis, 26): 4 µg/mL | MIC (E. faecium 3030; Enterococcus faecium, 3030): 0.5 µg/mL | MIC (M. luteus; Micrococcus luteus): 2 µg/mL | MIC (S. aureus 1053a; Staphylococcus aureus, 1053A): 4 to 8 µg/mL | MIC (Ps. aeruginosa 1959; Pseudomonas aeruginosa, 1959): 64 µg/mL | MIC (Moraxella sp. 764; Moraxella, SP.764): 64 µg/mL | MIC (E. faecalis 3047; Enterococcus faecalis, 3047): 2 µg/mL | MIC (Klebsiella spp. 11; Klebsiella, SPP.11): 64 µg/mL | MIC (S. aureus ATCC 29213; Staphylococcus aureus, ATCC29213): 16 µg/mL | MIC (S. aureus 19; Staphylococcus aureus, 19): 16 µg/mL | MIC (E. faecium 32; Enterococcus faecium, 32): < 0.5 µg/mL | MIC (S. aureus 21; Staphylococcus aureus, 21): 16 µg/mL | MIC (S. aureus 18; Staphylococcus aureus, 18): 16 µg/mL | MIC (E. faecium 28; Enterococcus faecium, 28): 32 µg/mL | MIC (S. aureus 1130 MRSA; Staphylococcus aureus, MRSA): 4 µg/mL | MIC (S. intermedius 1143 MRSA): 8 µg/mL | MIC (Proteus spp. 17): > 64 µg/mL | MIC (Acinetobacter spp. 4; Acinetobacter, SPP.4): > 64 µg/mL | MIC (E. faecalis 23; Enterococcus faecalis, 23): 4 µg/mL | MIC (Moraxella sp. 765; Moraxella, SP.765): 64 µg/mL | MIC (Kl. pneumoniae 1812 PR; Klebsiella pneumoniae, 1812PR): 64 µg/mL | MIC (S. aureus 983 MRSA; Staphylococcus aureus, MRSA): 4 µg/mL
